This experiment deals with NTSR1 (Homo sapiens, UniProt P30989). Kind of experiment: BRET1 β-arrestin1/2 recruitment to NTSR1, ligand alone. Type of experiment: cell-based.
NTSR1, sequence (P30989 whole entry): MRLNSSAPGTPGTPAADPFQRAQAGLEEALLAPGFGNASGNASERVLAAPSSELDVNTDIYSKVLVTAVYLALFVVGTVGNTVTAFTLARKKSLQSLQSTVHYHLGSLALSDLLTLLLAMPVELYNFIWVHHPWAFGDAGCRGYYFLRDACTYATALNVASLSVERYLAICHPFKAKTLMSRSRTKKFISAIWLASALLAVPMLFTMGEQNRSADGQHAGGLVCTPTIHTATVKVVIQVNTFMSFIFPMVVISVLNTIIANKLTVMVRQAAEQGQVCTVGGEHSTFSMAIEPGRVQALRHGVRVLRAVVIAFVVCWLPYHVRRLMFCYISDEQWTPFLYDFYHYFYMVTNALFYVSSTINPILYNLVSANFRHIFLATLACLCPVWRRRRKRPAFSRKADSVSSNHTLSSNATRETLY

Consider `COc1cccc(OC)c1-c1cc(C(=O)NC2(C(=O)O)C3CC4CC(C3)CC2C4)nn1-c1ccc(C(=O)N(C)CCCN(C)C)cc1C(C)C` (centres unmarked) [SR142948A], for which the “agonist efficacy” value is, setting by setting: (β-arrestin1) “without effect”; (β-arrestin2) “without effect”.

(Values after paper PMC11601581 (bioRxiv, 2024).)
